The source of these data is patent publication US8466157B2, “Proteasome inhibitors having chymotrypsin-like activity” (University of South Florida, priority 2009, dated 2013).

Where “and” joins values, the source holds several entries; their conditions need not be identical. Equal values may be shown once. Read-outs that look alike come from different tables or passages of the source. Some results are limits rather than exact numbers.

In the test the target is T1, chymotrypsin-like activity of the purified rabbit 20S proteasome (Oryctolagus cuniculus, UniProt G1T4Q9).
T1 sequence (G1T4Q9 1-263): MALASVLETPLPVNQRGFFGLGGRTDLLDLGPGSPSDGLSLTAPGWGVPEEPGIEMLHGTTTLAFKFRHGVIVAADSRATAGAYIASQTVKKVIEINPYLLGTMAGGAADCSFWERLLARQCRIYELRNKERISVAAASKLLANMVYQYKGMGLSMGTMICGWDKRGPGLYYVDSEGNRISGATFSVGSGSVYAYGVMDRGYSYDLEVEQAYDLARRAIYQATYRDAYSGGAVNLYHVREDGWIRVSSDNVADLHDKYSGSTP
The test can be described thus: 20S proteasome inhibition assay, fluorogenic substrate Suc-Leu-Leu-Val-Tyr-AMC.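 For all read-outs here: enzyme and 20 µM substrate incubated 1 h at 37 °C in Tris-HCl buffer pH 7.6, fluorogenic read-out, inhibition calculated against vehicle control.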 The class given is biochemical. Conditions: for proteasome inhibitory activity, SAR statement in words: chymotrypsin-like activity, compared with lead or analogue.

[1] abbreviates: individual determinations (runs M-1096, M-1098, M-1099, AK or dated), read-out: Chymotrypsin-like Activity IC50.
The mark [2] stands for this setting: mean of the individual determinations, read-out: Chymotrypsin-like Activity IC50 (μM), mean ± spread (n).
Where [3] appears, read: 30 μM, runs M-1096, M-1098, M-1099.

Method: 20S Proteasome Inhibition Assay
In our work, we used chymotrypsin-like substrate Suc-Leu-Leu-Val-Tyr-AMC to test the proteasome inhibition activity of the synthesized compounds.
The assay was conducted by using a fluorogenic peptide as substrate to test synthesized compounds for inhibitory activity against the chymotrypsin-like activity of the purified rabbit 20S proteasome. Briefly, 70 ng of purified 20S proteasome was incubated with 20 μM Suc-Leu-Leu-Val-Tyr-AMC for 1 hour at 37° C. in 100 μl of assay buffer (50 mM Tris-HCl, pH 7.6) with or without inhibitors. […] The inhibitory activity of the compounds was calculated based on vehicle control.

Regarding `CC(C)(C)OC(=O)COc1cc(NS(=O)(=O)c2cccs2)c2ccccc2c1O` [YL2-025, tert-Butyl-2-(1-hydroxy-4-(thiophene-2-sulfonamido)naphthalen-2-yloxy)acetate], the IC50 under setting [1] was more than 10 µM.
The same measure, in the same setting: with `O=C1C(N2CCN(c3ccccn3)CC2)=C/C(=N\S(=O)(=O)c2cccs2)c2ccccc21` [YG1-130] the figure was more than 10 µM.
Take `CNC(=O)CCSC1=C/C(=N\S(=O)(=O)c2cccs2)c2ccccc2C1=O` [HL4-078-2, N-methyl-3-(1-oxo-4-(thiophen-2-ylsulfonylimino)-1,4-dihydronaphthalen-2-ylthio)propanamide]: the concentration for half-maximal inhibition (IC50) under setting [1] was 8.1 µM and > 10 µM (2×).
Same read-out and setting: with `O=C(O)CCCOc1ccc(NS(=O)(=O)c2cccs2)c2ccccc12` [YG2-094, 4-(4-(thiophene-2-sulfonamido)naphthalen-1-yloxy)butanoic acid] the figure was more than 10 µM; with `O=C(O)CSc1ccc(NS(=O)(=O)c2cccs2)c2ccccc12` [YG3-007, 2-(4-(thiophene-2-sulfonamido)naphthalen-1-ylthio)acetic acid], more than 10 µM.
`COC(=O)CCSC1=C/C(=N\S(=O)(=O)c2cccs2)c2ccccc2C1=O` [YG1-112]: the IC50 is 2.2 µM and 5.9 µM and 6.1 µM and > 10 µM (2×) and 6 µM and 3 µM under setting [1]; 4.64 µM under setting [2].
In the case of `CN(C)C(=O)CCSc1cc(NS(=O)(=O)c2cccs2)c2ccccc2c1O` [HL4-100-1, 3-(1-hydroxy-4-(thiophene-2-sulfonamido)naphthalen-2-ylthio)-N,N-dimethylpropanamide], the IC50 under setting [1] is more than 10 µM.
For `CCOC(=O)CSc1cc(NS(=O)(=O)c2cccs2)c2ccccc2c1O` [9a, Ethyl 2-(1-hydroxy-4-(thiophene-2-sulfonamido)naphthalen-2-ylthio)acetate], the “proteasome inhibitory activity, SAR statement in words” value (“proteasome inhibitory activity” below) is given as “reduced compared to acid analogues”.
With `CN(C)C(=O)CCSC1=C/C(=N\S(=O)(=O)c2cccs2)c2ccccc2C1=O` [HL4-078-1, N,N-dimethyl-3-(1-oxo-4-(thiophen-2-ylsulfonylimino)-1,4-dihydronaphthalen-2-ylthio)propanamide], the IC50 is 4.7 µM and 9.65 µM and 9.56 µM and 8.5 µM and > 10 µM under setting [1]; 8.1 µM under setting [2].
For the molecule `CCOC(=O)CSC1=C/C(=N\S(=O)(=O)c2ccc(C)cc2)c2ccccc2C1=O` [YG2-014, Ethyl 2-(1-oxo-4-(tosylimino)-1,4-dihydronaphthalen-2-ylthio)acetate], the 50% inhibitory concentration (IC50) under setting [1] was 4 µM and 4.7 µM and 4.2 µM and > 10 µM; the half-maximal inhibitory concentration (IC50) under setting [2] was 4.3 µM.
With “N-(3-(1-methyl-1H-tetrazol-5-ylthio)-4-oxonaphthalen-1(4H)-ylidene)thiophene-2-sulfonamide [YG1-158-1]”, the IC50 is 2.46 µM and 7.24 µM and 7.9 µM and 9.8 µM and > 10 µM and 1.24 µM and 1.81 µM under setting [1]; 5.08 µM under setting [2].
With `O=C(O)CS(=O)(=O)c1cc(NS(=O)(=O)c2cccs2)c2ccccc2c1O` [YG1-134, 2-(1-hydroxy-4-(thiophene-2-sulfonamido)naphthalen-2-ylsulfonyl)acetic acid], the “proteasome inhibitory activity” value is reported as “loss or reduction of the inhibitory activity”. The IC50 under setting [1] was more than 10 µM.
Regarding `CC(C)(C)OC(=O)CC1C(=O)C(=O)c2ccccc2C1=O` (stereo not shown) [YL2-015 4th spot], under setting [1], the IC50 was more than 10 µM.
As to `CCOC(=O)CS(=O)(=O)c1cc(NS(=O)(=O)c2cccs2)c2ccccc2c1O` [YG1-133, Ethyl 2-(1-hydroxy-4-(thiophene-2-sulfonamido)naphthalen-2-ylsulfonyl)acetate], the half-maximal inhibitory concentration (IC50) under setting [1] is 8.2 µM and > 10 µM (2×).
`CCOC(=O)CSC1=C/C(=N\S(=O)(=O)c2ccc(-c3ccccc3)cc2)c2ccccc2C1=O` [YG2-011]: the IC50 under setting [1] is more than 10 µM.
`O=C(CCSC1=C/C(=N\S(=O)(=O)c2cccs2)c2ccccc2C1=O)NC1CC1` [HL4-078-3, N-cyclopropyl-3-(1-oxo-4-(thiophen-2-ylsulfonylimino)-1,4-dihydronaphthalen-2-ylthio)propanamide]: the IC50 is 5.5 µM and 8.65 µM and > 10 µM (2×) under setting [1]; 8.05 µM under setting [2].
For `O=C1CSc2cc(NS(=O)(=O)c3cccs3)c3ccccc3c2O1` [YG2-120, N-(2-oxo-2,3-dihydronaphtho[1,2-b][1,4]oxathiin-6-yl)thiophene-2-sulfonamide], under setting [1], the IC50 was 1.1 µM and 1.79 µM.
Same read-out and setting: next, `CCOC(=O)CSc1cc(NS(=O)(=O)c2cccs2)c2ccccc2c1O` [YG1-094-2]: 2.67 µM and 9.65 µM and 9.5 µM; `O=C1C=C(O)C(=O)c2ccccc21` [S.M. of YL2-013, 2-hydroxynaphthalene-1,4-dione]: more than 10 µM.
On the same count and under the same terms, with `COC(=O)CCSc1cc(NS(=O)(=O)c2cccs2)c2ccccc2c1O` [YG1-107] the figure was 2.28 µM and 2.26 µM and 6.6 µM and 3.9 µM and 7.1 µM and 7.7 µM.
Turning to `CCOC(=O)CSC1=C/C(=N\S(=O)(=O)Cc2ccc(Cl)cc2)c2ccccc2C1=O` [YG2-019, Ethyl 2-(4-(4-chlorobenzylsulfonylimino)-1-oxo-1,4-dihydronaphthalen-2-ylthio)-acetate], the IC50 was 6.9 µM and 7.6 µM and > 10 µM (4×) under setting [1]; 7.25 µM under setting [2].
On to `O=S(=O)(Nc1cc(Cl)c(O)c2ccccc12)c1cccs1` [YG1-012, N-(3-chloro-4-hydroxynaphthalen-1-yl)thiophene-2-sulfonamide], for which, under setting [3], the “Chymotrypsin-like Activity Inhibition at 30 μM” value was 41% and 45%; the inhibition at 30 µM is 33%. The “Chymotrypsin-like Activity Inhib at 100 μM” value (100 μM) is listed as 97%. The inhibition at 100 µM (100 μM, read-out: Chymotrypsin-like Activity Inhib at 100 μM) worked out at 82%. In addition, the IC50 under setting [1] was > 30 µM and 45 µM and 36 µM.
As for `CCOC1=C/C(=N\S(=O)(=O)c2cccs2)c2ccccc2C1=O` [YG1-122, N-(3-ethoxy-4-oxonaphthalen-1(4H)-ylidene)thiophene-2-sulfonamide], the half-maximal inhibitory concentration (IC50) under setting [1] is more than 10 µM.
Same read-out and setting: with `O=C(O)c1cccc(NC2=C/C(=N\S(=O)(=O)c3cccs3)c3ccccc3C2=O)c1` [YG1-174, 3-(1-oxo-4-(thiophen-2-ylsulfonylimino)-1,4-dihydronaphthalen-2-ylamino)-benzoic acid] the figure was more than 10 µM.
In the case of `CCOC(=O)CSC1=C/C(=N\S(=O)(=O)c2cccs2)c2ccccc2C1=O` [YG1-094], the IC50 reads like this: under setting [1], 1.6 µM and > 10 µM and 2.8 µM and 3 µM and 1.5 µM and 2.5 µM; under setting [2], 2.28 µM.
For the molecule `CC(C)(C)OC(=O)COC1=C/C(=N\S(=O)(=O)c2cccs2)c2ccccc2C1=O` [YL2-023, tert-Butyl-2-(1-oxo-4-(thiophen-2-ylsulfonylimino)-1,4-dihydronaphthalen-2-yloxy)acetate], under setting [1], the IC50 is more than 10 µM.
As for `COC(=O)CCSc1cc(NS(=O)(=O)c2cc(Cl)c(Cl)s2)c2ccccc2c1O` [HL4-098-3, Methyl-3-(4-(4,5-dichlorothiophene-2-sulfonamido)-1-hydroxynaphthalen-2-ylthio)propanoate], under setting [1], the IC50 was 0.81 µM and 1.5 µM and 1.52 µM and 0.9 µM.
Turning to `O=C(CCSc1cc(NS(=O)(=O)c2cccs2)c2ccccc2c1O)NC1CC1` [HL4-100-3, N-cyclopropyl-3-(1-hydroxy-4-(thiophene-2-sulfonamido)naphthalen-2-ylthio)propanamide], the IC50 under setting [1] is 8.6 µM and 6 µM and > 10 µM; the IC50 under setting [2] worked out at 7.3 µM.
In the case of `O=S(=O)(Nc1cc(SCCO)c(O)c2ccccc12)c1cccs1` [YG1-087-2, N-(4-hydroxy-3-(2-hydroxyethylthio)naphthalen-1-yl)thiophene-2-sulfonamide], the “proteasome inhibitory activity” value is “the inhibitory activity totally lost”. The concentration for half-maximal inhibition (IC50) under setting [1] was more than 10 µM.
`CCOC(=O)CSC1=CC(=O)c2ccccc2C1=O` [YG1-059, Ethyl 2-(1,4-dioxo-1,4-dihydronaphthalen-2-ylthio)acetate] gave an inhibition at 30 µM under setting [3] of 49%. The IC50 under setting [1] was more than 100 µM.
On to `CNC(=O)CCSc1cc(NS(=O)(=O)c2cccs2)c2ccccc2c1O` [HL4-100-2, 3-(1-hydroxy-4-(thiophene-2-sulfonamido)naphthalen-2-ylthio)-N-methylpropanamide], for which, under setting [1], the IC50 is more than 10 µM.
Same read-out and setting: with `O=C(O)COc1ccc(NS(=O)(=O)c2cccs2)c2ccccc12` [YG2-083, 2-(4-(thiophene-2-sulfonamido)naphthalen-1-yloxy)acetic acid] the figure was more than 10 µM; with “N-(3-(ethylthio)-4-hydroxynaphthalen-1-yl)thiophene-2-sulfonamide [YG2-087-1]”, more than 10 µM; with `CCSC1=C/C(=N\S(=O)(=O)c2cccs2)c2ccccc2C1=O` [YG2-086-1, N-(3-(ethylthio)-4-oxonaphthalen-1(4H)-ylidene)thiophene-2-sulfonamide], 9.4 µM and 9.85 µM.
Still for that read-out and setting: next, `O=C(O)CSc1cc(NS(=O)(=O)c2ccc(Cl)cc2)c2ccccc2c1O` [YG2-034-1, 2-(4-(4-chlorophenylsulfonamido)-1-hydroxynaphthalen-2-ylthio)acetic acid]: > 10 µM and 3.44 µM and 4.15 µM.
On the same count and under the same terms, next, `Nc1ccc(SCC(=O)O)c2ccccc12` [YG3-005, 2-(4-aminonaphthalen-1-ylthio)acetic acid]: more than 10 µM.
In the case of `O=C(O)COc1cc(NS(=O)(=O)c2cccs2)c2ccccc2c1O` [YL2-030, 2-(1-hydroxy-4-(thiophene-2-sulfonamido)naphthalen-2-yloxy)acetic acid], the “proteasome inhibitory activity” value is “diminished the inhibitory activity”. Moreover, the concentration for half-maximal inhibition (IC50) under setting [1] was more than 10 µM.
For the molecule `CCOC(=O)CSC1=C(SCC(=O)OCC)C(=O)c2ccccc2C1=O` [YG1-017], the “Chymotrypsin-like Activity Inhib at 100 μM” value (100 μM) is 57% and 36%. Also, the IC50 under setting [1] was > 30 µM and 48 µM and > 100 µM.
As to `O=C(O)CSc1cc(NS(=O)(=O)c2ccccc2)c2ccccc2c1O` [YG1-117, 2-(1-hydroxy-4-(phenylsulfonamido)naphthalen-2-ylthio)acetic acid], the IC50 is, setting by setting: under setting [1], 0.68 µM and 2.71 µM and 2.9 µM and 1.9 µM and 2.2 µM; (value quoted in running text / FIG. 11, read-out: IC50 against chymotrypsin-like proteasome activity) 2.08 µM.
In the case of `CC(C)(C)OC(=O)COc1ccc(NS(=O)(=O)c2cccs2)c2ccccc12` [YG2-080, tert-butyl 2-(4-(thiophene-2-sulfonamido)naphthalen-1-yloxy)acetate], the half-maximal inhibitory concentration (IC50) under setting [1] was more than 10 µM.

As usually defined, the IC50 is the concentration that inhibits the measured activity by half.
